The results in this text go back to publication PMC9058255 (RSC Advances, 2020).

The subject of series [1] is MERS-S pseudovirus. The series is described as follows: organism not typed. As to conditions: for IC50: read-out: IC50: 50% inhibitory concentration. It counts as cell-based, MERS-CoV.
A short description of series [2]: in vitro. As to conditions: human.
The subject of series [3] is Huh-7 cells.

Where two headings read alike, the source gives them in different places.

As for `COc1cccc(/C=N/c2ccc(-c3nc4ccccc4s3)cc2)c1O` [Compound 1a, (E)-2-(((4-(Benzo[d]thiazol-2-yl)phenyl)imino)methyl)-6-methoxyphenol], in series [1], the “inhibitory activity against MERS-S pseudovirus (in words)” value (from here on “inhibitory activity”) is “modest entry inhibitor” and the IC50 came to 0.73 ± 0.66 µM.

Regarding `COc1cccc(/C=N/c2ccc(-c3nc4ccccc4o3)cc2)c1O` [Compound 1b, (E)-2-(((4-(Benzo[d]oxazol-2-yl)phenyl)imino)methyl)-6-methoxyphenol], the “inhibitory activity” value in series [1] is recorded as “lost inhibitory activity”. In addition, the IC50 in series [1] (Huh-7, 48 h) was more than 10 µM. `COc1cccc(/C=N/c2ccc(-c3nc4ccccc4[nH]3)cc2)c1O` [Compound 1c, (E)-2-(((4-(1H-Benzo[d]imidazol-2-yl)phenyl)imino)methyl)-6-methoxyphenol]: in series [1], the “inhibitory activity” value is given as “lost inhibitory activity”. Moreover, the IC50 in series [1] (Huh-7, 48 h) was more than 10 µM. The matching figures for `COc1cccc(/C=N/c2ccc(-c3nc4ccccc4s3)nc2)c1O` [Compound 1d, (E)-2-(((6-(Benzo[d]thiazol-2-yl)pyridin-3-yl)imino)methyl)-6-methoxyphenol]: “Modest inhibitory activity” and 2.7 ± 0.19 µM. Regarding `COc1cccc(/C=N/c2nc3ccccc3s2)c1O` [Compound 1e, (E)-2-((benzo[d]thiazol-2-ylimino)methyl)-6-methoxyphenol], the “inhibitory activity” value in series [1] is on record as “lost inhibitory activity”. Also, the IC50 in series [1] (Huh-7, 48 h) was more than 10 µM. The matching figures for `COc1cccc(CNc2ccc(-c3nc4ccccc4s3)cc2)c1O` [Compound 1f, 2-(((4-(benzo[d]thiazol-2-yl)phenyl)amino)methyl)-6-methoxy-phenol]: “inhibitory activity was markedly reduced” and more than 10 µM. On to `COc1cccc(C(=O)Nc2ccc(-c3nc4ccccc4s3)cc2)c1O` [Compound 1g, N-(4-(benzo[d]thiazol-2-yl)phenyl)-2-hydroxy-3-methoxybenzamide], for which the “inhibitory activity” value in series [1] was “inhibitory activity was markedly reduced”. The IC50 in series [1] (Huh-7, 48 h) was more than 10 µM. For the compound `C(=N\c1ccc(-c2nc3ccccc3s2)cc1)/c1ccccc1` [Compound 1h, (E)-N-(4-(Benzo[d]thiazol-2-yl)phenyl)-1-phenylmethanimine], in series [2], the CC50 was more than 100 µM. Besides, the IC50 in series [1] (Huh-7, 48 h) was determined as 0.57 ± 0.11 µM. The like results for `Oc1ccccc1/C=N/c1ccc(-c2nc3ccccc3s2)cc1` [Compound 1i, (E)-2-(((4-(Benzo[d]thiazol-2-yl)phenyl)imino)methyl)phenol] were, in that order, more than 100 µM and 0.52 ± 0.03 µM. With `Oc1cccc(/C=N/c2ccc(-c3nc4ccccc4s3)cc2)c1O` [Compound 1k, (E)-3-(((4-(Benzo[d]thiazol-2-yl)phenyl)imino)methyl)benzene-1,2-diol], the CC50 in series [2] is more than 100 µM. In series [1] (Huh-7, 48 h), the IC50 was 0.4 ± 0.01 µM. `COc1ccc(/C=N/c2ccc(-c3nc4ccccc4s3)cc2)cc1O` [Compound 1l, (E)-5-(((4-(Benzo[d]thiazol-2-yl)phenyl)imino)methyl)-2-methoxyphenol]: the CC50 in series [2] was more than 100 µM. The IC50 in series [1] (Huh-7, 48 h) was 0.22 ± 0.03 µM.

Turning to `C(=N\c1ccc(-c2nc3ccccc3s2)cc1)/c1cccnc1` [Compound 1m, (E)-N-(4-(Benzo[d]thiazol-2-yl)phenyl)-1-(pyridin-3-yl)methanimine], the CC50 in series [2] is more than 100 µM. Besides, the IC50 in series [1] (Huh-7, 48 h) was 0.34 ± 0.24 µM. In turn, `C(=N\c1ccc(-c2nc3ccccc3s2)cc1)/c1ccoc1` [Compound 1n, (E)-N-(4-(Benzo[d]thiazol-2-yl)phenyl)-1-(furan-3-yl)methanimine] registered a CC50 in series [2] of more than 100 µM. The IC50 in series [1] (Huh-7, 48 h) is more than 10 µM.

The compound `C(=N\c1ccc(-c2nc3ccccc3s2)cc1)/c1ccsc1` [Compound 1o, (E)-N-(4-(Benzo[d]thiazol-2-yl)phenyl)-1-(thiophen-3-yl)methanimine] came in with a CC50 in series [2] of more than 100 µM. In addition, the IC50 in series [1] (Huh-7, 48 h) was found to be 0.14 ± 0.06 µM. With `C(=N\c1ccc(-c2nc3ccccc3s2)cc1)/c1cc[nH]c1` [Compound 1p, (E)-N-(4-(Benzo[d]thiazol-2-yl)phenyl)-1-(1H-pyrrol-3-yl)methanimine], in series [2], the CC50 was more than 100 µM. In addition, the IC50 in series [1] (Huh-7, 48 h) is more than 10 µM. The compound `C(=N\c1ccc(-c2nc3ccccc3s2)cc1)/c1cccs1` [Compound 1q, (E)-N-(4-(Benzo[d]thiazol-2-yl)phenyl)-1-(thiophen-2-yl)methanimine] registered a CC50 in series [2] of more than 100 µM. In addition, in series [1], the “inhibitory activity” value is reported as “modest inhibitory capacity”. For the same compound, in series [1] (Huh-7, 48 h), the IC50 came to 6.52 ± 1.14 µM. As for `O=[N+]([O-])c1cc(/C=N/c2ccc(-c3nc4ccccc4s3)cc2)cs1` [Compound 1r, (E)-N-(4-(Benzo[d]thiazol-2-yl)phenyl)-1-(5-nitrothiophen-3-yl)methanimine], the CC50 in series [2] was more than 100 µM. For the same compound, in series [1] (Huh-7, 48 h), the IC50 turned out to be 0.62 ± 0.31 µM.

In series [2], `C(=N\c1ccc(-c2nc3ccccc3s2)cc1)/c1cscn1` [Compound 1s, (E)-N-(4-(Benzo[d]thiazol-2-yl)phenyl)-1-(thiazol-4-yl)methanimine] showed a CC50 of more than 100 µM. For the same compound, the IC50 in series [1] (Huh-7, 48 h) was more than 10 µM. In turn, `C(=N\c1ccc(-c2nc3ccccc3s2)cc1)/c1cncs1` [Compound 1t, (E)-N-(4-(Benzo[d]thiazol-2-yl)phenyl)-1-(thiazol-5-yl)methanimine] registered a CC50 in series [2] of more than 100 µM. For the same compound, the IC50 in series [1] (Huh-7, 48 h) amounted to 8.8 ± 0.01 µM. The matching figures for `C(=N\c1ccc(-c2nc3ccccc3s2)cc1)/c1nccs1` [Compound 1u, (E)-N-(4-(Benzo[d]thiazol-2-yl)phenyl)-1-(thiazol-2-yl)methanimine]: more than 100 µM and more than 10 µM. Regarding `C(=N\c1ccc(-c2nc3ncccc3s2)cc1)/c1ccsc1` [Compound 4a, (E)-N-(4-(Thiazolo[4,5-b]pyridin-2-yl)phenyl)-1-(thiophen-3-yl)methanimine], the IC50 in series [1] (Huh-7, 48 h) is more than 10 µM. Same read-out and setting: for `C(=N\c1ccc(-c2nc3c(s2)CCCC3)cc1)/c1ccsc1` [Compound 4b, (E)-N-(4-(4,5,6,7-Tetrahydrobenzo[d]thiazol-2-yl)phenyl)-1-(thiophen-3-yl) methanimine] the value was more than 10 µM; for `C(=N\c1ccc(-c2cn3c(n2)sc2ccccc23)cc1)/c1ccsc1` [Compound 4c, (E)-N-(4-(Benzo[d]imidazo[2,1-b]thiazol-2-yl)phenyl)-1-(thiophen-3-yl) methanimine], more than 10 µM. The same measure, in the same setting: for `C(=N\c1ccc(-c2cn3ccccc3n2)cc1)/c1ccsc1` [Compound 4d, (E)-N-(4-(Imidazo[1,2-a]pyridin-2-yl)phenyl)-1-(thiophen-3-yl)methanimine] the value was more than 10 µM; for `Fc1cccc2nc(-c3ccc(/N=C/c4ccsc4)cc3)sc12` [Compound 4e, (E)-N-(4-(7-Fluorobenzo[d]thiazol-2-yl)phenyl)-1-(thiophen-3-yl)methanimine], 1.67 ± 0.3 µM; for `Fc1ccc2nc(-c3ccc(/N=C/c4ccsc4)cc3)sc2c1` [Compound 4f, (E)-N-(4-(6-Fluorobenzo[d]thiazol-2-yl)phenyl)-1-(thiophen-3-yl)methanimine], 0.09 ± 0.01 µM. Consider `Fc1ccc2sc(-c3ccc(/N=C/c4ccsc4)cc3)nc2c1` [Compound 4g, (E)-N-(4-(5-Fluorobenzo[d]thiazol-2-yl)phenyl)-1-(thiophen-3-yl)methanimine], for which, in series [1] (Huh-7, 48 h), the IC50 is 1 ± 0.07 µM. Consider `Fc1cccc2sc(-c3ccc(/N=C/c4ccsc4)cc3)nc12` [Compound 4h, (E)-N-(4-(4-Fluorobenzo[d]thiazol-2-yl)phenyl)-1-(thiophen-3-yl)methanimine], for which the IC50 in series [1] (Huh-7, 48 h) was 0.53 ± 0.02 µM.

For the compound `CCOc1ccc2nc(-c3ccc(/N=C/c4ccsc4)cc3)sc2c1` [Compound 4i, (E)-N-(4-(6-Ethoxybenzo[d]thiazol-2-yl)phenyl)-1-(thiophen-3-yl)methanimine], in series [1] (Huh-7, 48 h), the IC50 is more than 10 µM. On the same count and under the same terms, the value for `Cc1ccc2nc(-c3ccc(/N=C/c4ccsc4)cc3)sc2c1` [Compound 4j, (E)-N-(4-(6-Methylbenzo[d]thiazol-2-yl)phenyl)-1-(thiophen-3-yl)methanimine] was more than 10 µM; that for `CNc1ccc2nc(-c3ccc(/N=C/c4ccsc4)cc3)sc2c1` [Compound 4k, (E)-N-Methyl-2-(4-((thiophen-3-ylmethylene)amino)phenyl)benzo[d]thiazol-6-amine] was more than 10 µM. As for `CN(C)c1ccc2nc(-c3ccc(/N=C/c4ccsc4)cc3)sc2c1` [Compound 4l, (E)-N,N-Dimethyl-2-(4-((thiophen-3-ylmethylene)amino)phenyl)benzo[d]thiazol-6-amine], in series [1] (Huh-7, 48 h), the IC50 was more than 10 µM. For `O=C(O)c1ccc2nc(-c3ccc(/N=C/c4ccsc4)cc3)sc2c1` [Compound 4m, (E)-2-(4-((Thiophen-3-ylmethylene)amino)phenyl)benzo[d]thiazole-6-carboxylic acid], in series [1] (Huh-7, 48 h), the IC50 is more than 10 µM.

`CNC(=O)c1ccc2nc(-c3ccc(/N=C/c4ccsc4)cc3)sc2c1` [Compound 4n, (E)-N-Methyl-2-(4-((thiophen-3-ylmethylene)amino)phenyl)benzo[d]thiazole-6-carboxamide]: in series [1] (Huh-7, 48 h), the IC50 was more than 10 µM. Take `C(=N\c1ccc(Oc2nc3ccccc3s2)cc1)/c1ccsc1` [Compound 4o, (E)-N-(4-(Benzo[d]thiazol-2-yloxy)phenyl)-1-(thiophen-3-yl)methanimine]: the “inhibitory activity” value in series [1] is given as “inhibitory activity was abolished”. Further, in series [1] (Huh-7, 48 h), the IC50 was more than 10 µM. The matching figures for `C(=N\c1ccc(Sc2nc3ccccc3s2)cc1)/c1ccsc1` [Compound 4p, (E)-N-(4-(Benzo[d]thiazol-2-ylthio)phenyl)-1-(thiophen-3-yl)methanimine]: “inhibitory activity was abolished” and more than 10 µM. For “(E)-N-(4-(Benzo[d]thiazol-2-yl)phenyl)-1-(3-methoxyphenyl)methanimine [Compound 1j]”, in series [3], the CC50 is more than 100 µM. Also, the IC50 in series [1] stood at 0.2 ± 0.05 µM.
